Columns and labels:
C6 glioma cells = test: MTT cell viability assay, C6 glioma cells; type: cell-based, Rattus norvegicus; settings: for Ranking Cytotoxicity: scale 1 to 5 (1 = best, 5 = worst), C6 glioma cells; for cell morphology versus DMSO-treated control (confocal microscopy): 20 µM
Protocol: Cultures of adherent Rattus norvegicus pheochromocytoma cells (PC-12; ATCC CRL-1721) and axenic Rattus norvegicus C6 glioma cells (ATTC CCL-107) were prepared as previously reported. The cells were cultured using Dulbecco’s Modified Eagle’s medium with low glucose, sodium pyruvate, and without phenol red or L-glutamine (DMEM REF:11054-020; GIBCO; Waltham, MA, USA) and supplemented with 1.5% (v/v) heat-inactivated fetal bovine serum (GIBCO; Waltham, MA, USA), 10% (v/v) sterile filtered horse serum (Sigma-Aldrich, St. Louis, MO, USA), and 4% sterile L-glutamine (Sigma-Aldrich; St. Louis, MO, USA). Medium supplemented with sera was referred to as “complete medium”, while non-supplemented medium was designated as “incomplete”.
For the viability assays, both cell types were grown to confluency before being trypsinized, resuspended in 1 mL of complete medium per confluent well of a 6-well plate, diluted ten-fold, and then counted with a Scepter 2.0 Handheld Automated Cell Counter (Millipore, Burlington, MA, USA) affixed with a 60 µm sensor. Cells were subsequently seeded (adding 100 µL per well, thus adding an average of 1.0 × 10^4 cells per well) into poly-L-lysine-coated flat-bottomed 96-wells using separate plates for each cell type. Stock solutions of the Ru complexes were prepared in DMSO, with an appropriate dilution using DMSO to the testing concentrations of 40, 20, 2, or 0.2 µM. In all cases, the final concentration of DMSO was 1% with cell incubations. Solutions of the Ru complexes or DMSO were introduced 24 h after cell plating and incubated a further 24 h unless otherwise indicated. Replicate wells (n = 4) were set up for each experimental variation. No cell controls were also set up, containing the Ru complex in DMSO additions, so that potential spectral signals could be blanked out for the spectrophotometric 3-[4,5-dimethylthiazol-2-yl]-2,5-diphenyltetrazoliumbromide (MTT) viability assay, as described below.
To assess the viability of the cells with and without Ru additions, cell viability tests were performed using an MTT assay following the procedure of Mosmann with the following variations: Before adding the MTT reagent (5 mg/mL water), 90 µL of the complete medium was removed from each well, and 90 µL of incomplete medium was added. Then, 10 µL of MTT reagent was added per well, gently mixed, and incubated at ambient temperature for one hour. The reactions were stopped by the addition of 100 µL per well of the stopping reagent (10% v/v Triton X-100, 1 mM HCl in isopropanol) to lyse the cells and dissolve the formed formazan crystals. The absorbance values were recorded using a Bio-Rad® Microplate Reader Benchmark at 595 nm. All MTT data were normalized to the DMSO controls by calculating the average percent of DMSO control with the following formula: average cell+Ru MTT−average (Ru blank MTT)/average control cell MTT−average (control blank MTT) × 100
Data were obtained from 4 replicates and reported as a percent of control cells.
A final step in the evaluation of the Ru complexes was completed using a standard MTT cell viability assay towards two neuronal cells lines. The cell lines used were glial cells, as these are the most abundant cell type within the brain [61], and chromaffin cells, which would provide an indication regarding stress response. Taken together, these would provide information regarding the overall biocompatibility of the Ru complexes.

[1] = test system: pheochromocytoma cells (PC-12); test: MTT cell viability assay, PC-12 cells; type: cell-based, Rattus norvegicus; settings: 24 h
Protocol: Cultures of adherent Rattus norvegicus pheochromocytoma cells (PC-12; ATCC CRL-1721) and axenic Rattus norvegicus C6 glioma cells (ATTC CCL-107) were prepared as previously reported. The cells were cultured using Dulbecco’s Modified Eagle’s medium with low glucose, sodium pyruvate, and without phenol red or L-glutamine (DMEM REF:11054-020; GIBCO; Waltham, MA, USA) and supplemented with 1.5% (v/v) heat-inactivated fetal bovine serum (GIBCO; Waltham, MA, USA), 10% (v/v) sterile filtered horse serum (Sigma-Aldrich, St. Louis, MO, USA), and 4% sterile L-glutamine (Sigma-Aldrich; St. Louis, MO, USA). […]
For the viability assays, both cell types were grown to confluency before being trypsinized, resuspended in 1 mL of complete medium per confluent well of a 6-well plate, diluted ten-fold, and then counted with a Scepter 2.0 Handheld Automated Cell Counter (Millipore, Burlington, MA, USA) affixed with a 60 µm sensor. […]
To assess the viability of the cells with and without Ru additions, cell viability tests were performed using an MTT assay following the procedure of Mosmann with the following variations: Before adding the MTT reagent (5 mg/mL water), 90 µL of the complete medium was removed from each well, and 90 µL of incomplete medium was added. […] The absorbance values were recorded using a Bio-Rad® Microplate Reader Benchmark at 595 nm. […]

| Molecule | Ranking Cytotoxicity (C6 glioma cells) | cell morphology versus DMSO-treated control (confocal microscopy) (C6 glioma cells; C6 cells, 24 h) | toxicity (MTT) (C6 glioma cells; C6 cells, 20 and 40 µM, 24 h) | toxicity (MTT) ([1]; 20 and 40 µM) | IC50 (cell viability) ([1]; tested 0.2–40 µM) |
| --- | --- | --- | --- | --- | --- |
| Cc1ccc(C(C)C)cc1.Cc1ccnc(-c2cc(C)ccn2)c1.F[P-](F)(F)(F)(F)F.[Cl-].[Ru+2] [RuBMe, [Ru(η^6-p-cymene)(4,4′-dimethyl-2,2′-bipyridine)Cl]PF6] | 2 |  |  |  |  |
| [Ru(η^6-p-cymene)(4,4′-diamino-2,2′-bipyridine)Cl]PF6 [RuBA] | 1 | virtually indistinguishable |  |  |  |
| [Ru(η^6-p-cymene)(4,4′-di-tert-butyl-2,2′-bipyridine)Cl]PF6 [RuBtB] | 5 | severely reduced in numbers and cell shapes | substantial toxicity | substantial toxicity | below the concentrations evaluated |
| Cc1ccc(C(C)C)cc1.F[P-](F)(F)(F)(F)F.[Cl-].[Ru+2].c1ccc(-c2ccccn2)nc1 [RuB, [Ru(η^6-p-cymene)(2,2′-bipyridine)Cl]PF6] | 4 |  |  |  |  |
| [Ru(η^6-p-cymene)(4,4′-dimethoxy-2,2′-bipyridine)Cl]PF6 [RuBMeO] | 3 |  |  |  |  |
